“And” between values parts separate entries of the source, which are not always exact repeats. Equal entries are not always repeated. Inconclusive results and toxic doses are left out.
System: L1210 leukemia ip in BDF1 mice, survival T/C
Experiment: NCI In Vivo Anticancer Drug Screen. Data for tumor model L1210 Leukemia (intraperitoneal) in B6D2F1 (BDF1) mice
Details: endpoint: mean survival time, higher = longer survival
Method in brief: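 Each compound was tested against a transplantable tumor grown in mice. The endpoint was survival, with treated animals benchmarked against vehicle controls as a simple ratio.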

[1] = dose: 100.0 mg/kg/injection, schedule: Q01DX001 (ip), vehicle: saline
[2] = dose: 200.0 mg/kg/injection, schedule: Q01DX001 (ip), vehicle: saline
[3] = dose: 400.0 mg/kg/injection, schedule: Q01DX001 (ip), vehicle: saline
[4] = dose: 100.0 mg/kg/injection, schedule: Q04DX003 (ip), vehicle: saline with Tween-80
[5] = dose: 100.0 mg/kg/injection, schedule: Q01DX009 (ip), vehicle: Klucel (hydroxypropylcellulose) (HPC)

## C#CCSC(=S)OCC
dose: 100.0 mg/kg/injection, schedule: Q04DX003 (ip), vehicle: other
  T/C: 95 % of control
dose: 200.0 mg/kg/injection, schedule: Q04DX003 (ip), vehicle: other
  T/C: 101 % of control

## N#Cc1[nH]cnc1N
[1]
  T/C: 94 % of control
[2]
  T/C: 105 % of control
[3]
  T/C: 97 % of control

## COc1ccc(C(=S)N2CCN(c3cccc(Cl)c3)CC2)cc1
[1]
  T/C: 96 % of control
[2]
  T/C: 91 % of control
[3]
  T/C: 91 % of control

## C[n+]1c(O)c(C(=O)CCl)n2cc([N+](=O)[O-])ccc21
[1]
  T/C: 100 % of control
[2]
  T/C: 92 % of control
[3]
  T/C: 101 % of control

## NNC(=O)CNc1ccc(F)c(Cl)c1
dose: 25.0 mg/kg/injection, schedule: Q04DX002 (ip), vehicle: saline + alcohol
  T/C: 113 % of control
dose: 50.0 mg/kg/injection, schedule: Q04DX002 (ip), vehicle: saline + alcohol
  T/C: 95 % of control
dose: 100.0 mg/kg/injection, schedule: Q04DX002 (ip), vehicle: saline + alcohol
  T/C: 98 % of control and 123 % of control

## O=C(Nc1cccc(Cl)c1)OCCOCCOC(=O)Nc1cccc(Cl)c1
dose: 100.0 mg/kg/injection, schedule: Q04DX003 (ip), vehicle: Klucel (hydroxypropylcellulose) (HPC)
  T/C: 93 % of control and 104 % of control
dose: 200.0 mg/kg/injection, schedule: Q04DX003 (ip), vehicle: Klucel (hydroxypropylcellulose) (HPC)
  T/C: 101 % of control and 106 % of control
dose: 400.0 mg/kg/injection, schedule: Q04DX003 (ip), vehicle: Klucel (hydroxypropylcellulose) (HPC)
  T/C: 97 % of control and 98 % of control

## [Se]c1ccnc([Se])n1
[4]
  T/C: 89 % of control
dose: 200.0 mg/kg/injection, schedule: Q04DX003 (ip), vehicle: saline with Tween-80
  T/C: 94 % of control

## CNC(=O)Nc1c(O)nc(N)[nH]c1=O
dose: 37.5 mg/kg/injection, schedule: Q01DX001 (ip), vehicle: saline
  T/C: 97 % of control
dose: 75.0 mg/kg/injection, schedule: Q01DX001 (ip), vehicle: saline
  T/C: 103 % of control
dose: 150.0 mg/kg/injection, schedule: Q01DX001 (ip), vehicle: saline
  T/C: 105 % of control

## S=C(Nc1ccc(Cl)c(Cl)c1)Sc1ccccc1
dose: 50.0 mg/kg/injection, schedule: Q04DX003 (ip), vehicle: saline with Tween-80
  T/C: 95 % of control
[4]
  T/C: 91 % of control

## Cc1cccc(Cl)c1NC(=O)Nc1cccc(O)c1
dose: 100.0 mg/kg/injection, schedule: Q01DX009 (ip), vehicle: saline with Tween-80
  T/C: 100 % of control
dose: 200.0 mg/kg/injection, schedule: Q01DX009 (ip), vehicle: saline with Tween-80
  T/C: 100 % of control
dose: 400.0 mg/kg/injection, schedule: Q01DX009 (ip), vehicle: saline with Tween-80
  T/C: 97 % of control

## COc1ccc(NC(=O)Oc2ccc(C(C)=O)cc2)cc1
dose: 25.0 mg/kg/injection, schedule: Q01DX009 (ip), vehicle: Klucel (hydroxypropylcellulose) (HPC)
  T/C: 100 % of control
dose: 50.0 mg/kg/injection, schedule: Q01DX009 (ip), vehicle: Klucel (hydroxypropylcellulose) (HPC)
  T/C: 94 % of control
[5]
  T/C: 97 % of control and 91 % of control

## O=C1/C(=C2\CCc3ccccc32)Cc2ccccc21
dose: 12.5 mg/kg/injection, schedule: Q04DX002 (ip), vehicle: saline
  T/C: 99 % of control
dose: 25.0 mg/kg/injection, schedule: Q04DX002 (ip), vehicle: saline
  T/C: 96 % of control
dose: 50.0 mg/kg/injection, schedule: Q04DX002 (ip), vehicle: saline
  T/C: 96 % of control

## NCCB(O)O
dose: 100.0 mg/kg/injection, schedule: Q04DX003 (ip), vehicle: saline
  T/C: 95 % of control
dose: 200.0 mg/kg/injection, schedule: Q04DX003 (ip), vehicle: saline
  T/C: 93 % of control
dose: 400.0 mg/kg/injection, schedule: Q04DX003 (ip), vehicle: saline
  T/C: 98 % of control

## CCOC(=O)N(CCN1C(=O)c2ccccc2C1=O)c1cc(OC)ccc1OC
dose: 100.0 mg/kg/injection, schedule: Q04DX002 (ip), vehicle: Klucel (hydroxypropylcellulose) (HPC)
  T/C: 100 % of control
dose: 200.0 mg/kg/injection, schedule: Q04DX002 (ip), vehicle: Klucel (hydroxypropylcellulose) (HPC)
  T/C: 93 % of control
dose: 400.0 mg/kg/injection, schedule: Q04DX002 (ip), vehicle: Klucel (hydroxypropylcellulose) (HPC)
  T/C: 89 % of control

## CCN(CC)C(=S)S.[Cu+2]
[1]
  T/C: 105 % of control
[2]
  T/C: 102 % of control
[3]
  T/C: 105 % of control

## COC(=O)c1ccccc1NC(c1ccccn1)c1ccc2cccnc2c1O (stereo not given)
dose: 125.0 mg/kg/injection, schedule: Q01DX Z (ip), vehicle: carboxymethylcellulose (CMC)
  T/C: 108 % of control
dose: 250.0 mg/kg/injection, schedule: Q01DX Z (ip), vehicle: carboxymethylcellulose (CMC)
  T/C: 102 % of control
dose: 500.0 mg/kg/injection, schedule: Q01DX Z (ip), vehicle: carboxymethylcellulose (CMC)
  T/C: 101 % of control

## CCOC(=O)N(Cl)Cl
dose: 3.13 mg/kg/injection, schedule: Q04DX003 (ip), vehicle: saline
  T/C: 105 % of control
dose: 6.25 mg/kg/injection, schedule: Q04DX003 (ip), vehicle: saline
  T/C: 98 % of control
dose: 12.5 mg/kg/injection, schedule: Q04DX003 (ip), vehicle: saline
  T/C: 98 % of control

## CC1(C)N=C(N)N=C(N)N1c1ccc(CC(C(=O)Nc2ccc(S(=O)(=O)F)cc2)c2cccc3ccccc23)cc1 (stereo not given)
dose: 100.0 mg/kg/injection, schedule: Q01DX001 (ip), vehicle: Klucel (hydroxypropylcellulose) (HPC)
  T/C: 95 % of control
dose: 200.0 mg/kg/injection, schedule: Q01DX001 (ip), vehicle: Klucel (hydroxypropylcellulose) (HPC)
  T/C: 89 % of control
dose: 400.0 mg/kg/injection, schedule: Q01DX001 (ip), vehicle: Klucel (hydroxypropylcellulose) (HPC)
  T/C: 89 % of control

## O=[N+]([O-])c1ccc(N=N/C(=N\Nc2ccccc2)c2ccccc2)cc1
[5]
  T/C: 89 % of control
dose: 200.0 mg/kg/injection, schedule: Q01DX009 (ip), vehicle: Klucel (hydroxypropylcellulose) (HPC)
  T/C: 89 % of control
dose: 400.0 mg/kg/injection, schedule: Q01DX009 (ip), vehicle: Klucel (hydroxypropylcellulose) (HPC)
  T/C: 94 % of control

## CN(C)c1ncnc2nsnc12
[4]
  T/C: 100 % of control

Source: PubChem BioAssay AID248 (DTP/NCI, 2004)
